Laboratory results as given in ChEMBL document CHEMBL1201862, “PubChem BioAssay data set” (2004).
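Assay format: 96-well plates, 48-hour exposure. GI50 is the concentration that inhibits growth by half.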 The source made the active and inactive calls. Rule as the data show it: active = GI50 up to about 1.1 µM and inactive = higher.

Assays:
Experiment in all cases: DTP human tumour cell line panel, 48 h
MCF7 = tested on: MCF7
NCI-H23 = tested on: NCI-H23
COLO 205 = tested on: COLO 205
MDA-MB-435 = tested on: MDA-MB-435
K562 = tested on: K562
EKVX = tested on: EKVX
MDA-MB-231 = tested on: MDA-MB-231
PC-3 = tested on: PC-3
OVCAR-4 = tested on: OVCAR-4
U-251 = tested on: U-251
SF-295 = tested on: SF-295
SK-MEL-2 = tested on: SK-MEL-2
DU-145 = tested on: DU-145
M14 = tested on: M14
HOP-62 = tested on: HOP-62
OVCAR-3 = tested on: OVCAR-3
HCT-116 = tested on: HCT-116
KM12 = tested on: KM12
UO-31 = tested on: UO-31
LOX IMVI = tested on: LOX IMVI
OVCAR-5 = tested on: OVCAR-5
HCT-15 = tested on: HCT-15
CCRF-CEM = tested on: CCRF-CEM
NCI/ADR-RES = tested on: NCI/ADR-RES
SNB-19 = tested on: SNB-19
HCC 2998 = tested on: HCC 2998
SR = tested on: SR
A549 = tested on: A549
RPMI-8226 = tested on: RPMI-8226
Malme-3M = tested on: Malme-3M
SK-MEL-28 = tested on: SK-MEL-28
ACHN = tested on: ACHN
SK-MEL-5 = tested on: SK-MEL-5
OVCAR-8 = tested on: OVCAR-8
NCI-H460 = tested on: NCI-H460
MOLT-4 = tested on: MOLT-4
UACC-257 = tested on: UACC-257
TK-10 = tested on: TK-10
MDA-N = tested on: MDA-N
SN12C = tested on: SN12C
CAKI-1 = tested on: CAKI-1
HL-60 = tested on: HL-60
BT-549 = tested on: BT-549
NCI-H522 = tested on: NCI-H522
SNB-75 = tested on: SNB-75
NCI-H226 = tested on: NCI-H226
A498 = tested on: A498
Hs-578T = tested on: Hs-578T
SK-OV-3 = tested on: SK-OV-3
HOP-92 = tested on: HOP-92
SW-620 = tested on: SW-620
SF-268 = tested on: SF-268
RXF 393 = tested on: RXF 393
HT-29 = tested on: HT-29
IGROV-1 = tested on: IGROV-1
UACC-62 = tested on: UACC-62
SF-539 = tested on: SF-539
786-0 = tested on: 786-0

Measured: GI50

CC(C(=O)O)c1ccc(-n2nnc3c(=O)[nH][nH]c(=O)c32)cc1 (stereo unspecified)
inactive: MCF7 > 100 µM | NCI-H23 > 100 µM | COLO 205 > 100 µM | MDA-MB-435 > 100 µM | K562 > 100 µM | EKVX > 100 µM | MDA-MB-231 > 100 µM | PC-3 > 100 µM | OVCAR-4 > 100 µM | U-251 > 100 µM | SF-295 > 100 µM | SK-MEL-2 > 100 µM | DU-145 > 100 µM | M14 > 100 µM | HOP-62 > 100 µM | OVCAR-3 > 100 µM | HCT-116 > 100 µM | KM12 > 100 µM | UO-31 > 100 µM | LOX IMVI > 100 µM | OVCAR-5 > 100 µM | CCRF-CEM > 100 µM | NCI/ADR-RES > 100 µM | SNB-19 > 100 µM | HCC 2998 > 100 µM | SR > 100 µM | A549 > 100 µM | RPMI-8226 > 100 µM | Malme-3M > 100 µM | SK-MEL-28 > 100 µM | ACHN > 100 µM | SK-MEL-5 > 100 µM | OVCAR-8 > 100 µM | NCI-H460 > 100 µM | MOLT-4 > 100 µM | UACC-257 > 100 µM | TK-10 > 100 µM | MDA-N > 100 µM | SN12C > 100 µM | CAKI-1 > 100 µM | HL-60 > 100 µM | BT-549 > 100 µM
> 100 µM: HCT-15

C1CSCC2(COC2)CS1
inactive: NCI-H522 > 100 µM | MCF7 > 100 µM | NCI-H23 > 100 µM | COLO 205 > 100 µM | MDA-MB-435 > 100 µM | K562 > 100 µM | PC-3 > 100 µM | OVCAR-4 > 100 µM | U-251 > 100 µM | SF-295 > 100 µM | SNB-75 > 100 µM | DU-145 > 100 µM | HCT-116 > 100 µM | KM12 > 100 µM | NCI-H226 > 100 µM | UO-31 > 100 µM | LOX IMVI > 100 µM | CCRF-CEM > 100 µM | A498 > 100 µM | Hs-578T > 100 µM | NCI/ADR-RES > 100 µM | SNB-19 > 100 µM | HCC 2998 > 100 µM | SK-OV-3 > 100 µM | SR > 100 µM | A549 > 100 µM | HOP-92 > 100 µM | SW-620 > 100 µM | SF-268 > 100 µM | SK-MEL-28 > 100 µM | ACHN > 100 µM | SK-MEL-5 > 100 µM | OVCAR-8 > 100 µM | NCI-H460 > 100 µM | MOLT-4 > 100 µM | RXF 393 > 100 µM | UACC-257 > 100 µM | TK-10 > 100 µM | MDA-N > 100 µM | HT-29 > 100 µM | SN12C > 100 µM

CCOC(=O)c1c(-c2ccccc2)c(-c2ccccc2)cn1C
> 10 µM: HCT-15
inactive: NCI-H522 > 10 µM | IGROV-1 > 10 µM | NCI-H23 > 10 µM | MDA-MB-435 > 10 µM | K562 > 10 µM | EKVX > 10 µM | OVCAR-4 > 10 µM | U-251 > 10 µM | SF-295 > 10 µM | SK-MEL-2 8.15 µM | UACC-62 > 10 µM | SNB-75 > 10 µM | DU-145 8.95 µM | M14 > 10 µM | SF-539 > 10 µM | OVCAR-3 > 10 µM | KM12 > 10 µM | NCI-H226 > 10 µM | UO-31 > 10 µM | OVCAR-5 > 10 µM | CCRF-CEM > 10 µM | Hs-578T 4.92 µM | NCI/ADR-RES 5.82 µM | SNB-19 > 10 µM | HCC 2998 > 10 µM | SK-OV-3 > 10 µM | SR 3.51 µM | A549 > 10 µM | HOP-92 > 10 µM | Malme-3M > 10 µM | SF-268 > 10 µM | ACHN > 10 µM | OVCAR-8 > 10 µM | NCI-H460 > 10 µM | MOLT-4 > 10 µM | RXF 393 3.93 µM | UACC-257 > 10 µM | TK-10 > 10 µM | MDA-N > 10 µM | 786-0 > 10 µM | HT-29 8.67 µM | SN12C > 10 µM | HL-60 > 10 µM | BT-549 > 10 µM

O=C1CCC2(c3ccc(Cl)cc3)Nc3ccncc3N12 (stereo unspecified)
inactive: NCI-H522 > 10 µM | IGROV-1 > 10 µM | NCI-H23 > 10 µM | MDA-MB-435 > 10 µM | K562 > 10 µM | EKVX > 10 µM | PC-3 > 10 µM | OVCAR-4 > 10 µM | U-251 > 10 µM | SF-295 > 10 µM | SK-MEL-2 > 10 µM | UACC-62 > 10 µM | SNB-75 > 10 µM | DU-145 4.4 µM | M14 > 10 µM | SF-539 > 10 µM | OVCAR-3 > 10 µM | HCT-116 > 10 µM | KM12 > 10 µM | NCI-H226 > 10 µM | UO-31 > 10 µM | LOX IMVI > 10 µM | OVCAR-5 > 10 µM | CCRF-CEM > 10 µM | Hs-578T > 10 µM | NCI/ADR-RES > 10 µM | SNB-19 > 10 µM | SK-OV-3 5.52 µM | SR > 10 µM | A549 > 10 µM | HOP-92 > 10 µM | SW-620 > 10 µM | Malme-3M > 10 µM | SF-268 > 10 µM | ACHN > 10 µM | OVCAR-8 > 10 µM | NCI-H460 > 10 µM | MOLT-4 > 10 µM | UACC-257 > 10 µM | TK-10 > 10 µM | MDA-N > 10 µM | 786-0 > 10 µM | HT-29 > 10 µM | SN12C > 10 µM | HL-60 > 10 µM | BT-549 > 10 µM
> 10 µM: HCT-15
active: MDA-MB-231 0.00507 µM

O=S(=O)(O)c1ccc2c(/N=N/c3ccccc3)c(O)ccc2c1
inactive: NCI-H522 > 100 µM | NCI-H23 > 100 µM | K562 > 100 µM | MDA-MB-231 > 100 µM | PC-3 > 100 µM | OVCAR-4 > 100 µM | SF-295 > 100 µM | UACC-62 > 100 µM | HOP-62 > 100 µM | NCI-H226 > 100 µM | LOX IMVI > 100 µM | Hs-578T > 100 µM | NCI/ADR-RES > 100 µM | A549 > 100 µM | RPMI-8226 > 100 µM | Malme-3M > 100 µM | SF-268 > 100 µM | ACHN > 100 µM | TK-10 > 100 µM | MDA-N > 100 µM | HT-29 > 100 µM

Cc1ccc(S(=O)(=O)NC(=O)NCCc2c[nH]cn2)cc1
inactive: NCI-H522 > 100 µM | MCF7 > 100 µM | IGROV-1 > 100 µM | NCI-H23 > 100 µM | COLO 205 > 100 µM | MDA-MB-435 > 100 µM | K562 > 100 µM | EKVX > 100 µM | MDA-MB-231 > 100 µM | PC-3 > 100 µM | OVCAR-4 > 100 µM | U-251 > 100 µM | SF-295 > 100 µM | SK-MEL-2 > 100 µM | UACC-62 > 100 µM | SNB-75 > 100 µM | DU-145 > 100 µM | M14 > 100 µM | HOP-62 > 100 µM | SF-539 > 100 µM | OVCAR-3 > 100 µM | HCT-116 > 100 µM | KM12 > 100 µM | NCI-H226 > 100 µM | UO-31 > 100 µM | LOX IMVI > 100 µM | OVCAR-5 > 100 µM | A498 > 100 µM | Hs-578T > 100 µM | NCI/ADR-RES > 100 µM | SNB-19 > 100 µM | HCC 2998 > 100 µM | SK-OV-3 > 100 µM | SR > 100 µM | A549 > 100 µM | HOP-92 > 100 µM | SW-620 > 100 µM | RPMI-8226 > 100 µM | Malme-3M > 100 µM | SF-268 > 100 µM | SK-MEL-28 > 100 µM | ACHN > 100 µM | SK-MEL-5 > 100 µM | OVCAR-8 > 100 µM | NCI-H460 > 100 µM | MOLT-4 > 100 µM | RXF 393 > 100 µM | TK-10 > 100 µM | 786-0 > 100 µM | HT-29 > 100 µM | CAKI-1 > 100 µM | HL-60 > 100 µM
> 100 µM: HCT-15
